According to patent US10556865B2, “Synergistic herbicidal composition containing certain pyridine or pyrimidine carboxylic acids and certain cereal and rice herbicides” (Dow AgroSciences, LLC, priority 2007, dated 2020):
Several values for one entry are separate records, joined by “and”; a condition that tells them apart may be missing. Equal entries are not always repeated.

What was measured:
Assay type in all cases: in vivo
[1] = test system: Polygonum persicaria L. (POLPE); test: Postemergence herbicidal mixtures for weed control in direct seeded rice (greenhouse, visual % injury)
[2] = test system: Cyperus esculentus L. (CYPES); test: as above
Cyperus iria L. (CYPIR) = test: as above
[3] = test system: Ipomoea hederacea (L.) JACQ. (IPOHE); test: Postemergence herbicidal mixtures for weed control in direct seeded rice (greenhouse, visual % injury after 3 weeks)
[4] = test system: Polygonum pensylvanicum L. (POLPY); test: Postemergence herbicidal mixtures for weed control in direct seeded rice (greenhouse, visual % injury)
[5] = test system: Leptochloa chinensis (L.) NEES (LEFCH); test: as above
[6] = test system: Echinochloa species (ECHSS); test: Herbicidal mixtures for weed control in transplanted paddy rice (in-water application, visual % injury after 3 weeks)
Description: (§1) Weed seeds or nutlets of the desired test plant species were planted in puddled soil (mud) prepared by mixing a non-sterilized mineral soil (28 percent silt, 18 percent clay, and 54 percent sand, with a pH of about 7.3 to 7.8 and an organic matter content of about 1.0 percent) and water at a ratio of 100 kilograms (kg) of soil to 19 L of water. The prepared mud was dispensed in 250 mL aliquots into 480 mL non-perforated plastic pots with a surface area of 91.6 square centimeters leaving a headspace of 3 centimeters in each pot. Rice seeds were planted in Sun Gro MetroMix® 306 planting mixture, which typically has a pH of 6.0 to 6.8 and an organic matter content of about 30 percent, in plastic plug trays. Seedlings at the second or third leaf stage of growth were transplanted into 650 mL of mud contained in 960 mL non-perforated plastic pots with a surface area of 91.6 cm^2 4 days prior to herbicide application. The paddy was created by filling the 3 centimeter headspace of the pots with water. When required to ensure good germination and healthy plants, a fungicide treatment and/or other chemical or physical treatment was applied. The plants were grown for 4-14 days in a greenhouse with an approximate 14 hr photoperiod which was maintained at about 29° C. during the day and 26° C. during the night. Nutrients were added as Osmocote (17:6:10, N:P:K+minor nutrients) at 2 g per cup. Water was added on a regular basis to maintain the paddy flood, and supplemental lighting was provided with overhead metal halide 1000-Watt lamps as necessary. The plants were employed for testing when they reached the second or third true leaf stage.
(§2) Treatments consisted of esters or salts of compound A, compound C, or compound D and various herbicidal components alone and in combination. For technical grade compounds, a weighed amount, determined by the highest rate to be tested, was placed in an individual 120 mL glass vial and was dissolved in 20 mL of acetone to obtain concentrated stock solutions. […] The concentrated stock solutions obtained were diluted with 20 mL of an aqueous mixture containing 2.5% Agri-dex crop oil concentrate (v/v). For formulated compounds, a measured amount, determined by the highest rate to be tested, was placed in an individual 120 mL glass vial and was dissolved in 20 mL of 2.5% (v/v) Agri-dex crop oil concentrate to obtain concentrated stock solutions. The concentrated stock solutions obtained were diluted with 20 mL of acetone. Applications were made by injecting an appropriate amount of the stock solution into the aqueous layer of the paddy. Control plants were treated in the same manner with the solvent blank. All treated plant material received the same concentration of acetone and crop oil concentrate.
(§3) Forms of compounds A, C, and D were applied on an acid equivalent basis. Other herbicidal components were applied on an active ingredient basis and included acetolactate synthase (ALS)-inhibiting herbicides penoxsulam (triazolopyrimidine chemical class) applied as Grasp SC, […] (sulfonylurea chemical class) applied as Sirius G, and bensulfuron-methyl (sulfonylurea chemical class) applied as Londax; acetyl CoA carboxylase (ACCase) inhibiting herbicides cyhalofop-butyl applied as Clincher G and fenoxaprop-p-ethyl applied as Ricestar HT; auxinic herbicide quinclorac applied as Facet 75 DF; phytoene desaturase inhibiting herbicide norflurazon; and p-hydroxyphenylpyruvate dioxygenase (HPPD) inhibiting herbicide sulcotrione applied as Mikado.
(§4) The treated plants and control plants were placed in a greenhouse as described above and water was added as needed to maintain a paddy flood. After 3 weeks the condition of the test plants as compared with that of the untreated plants was determined visually and scored on a scale of 0 to 100 percent where 0 corresponds to no injury and 100 corresponds to complete kill.

[7] = test system: Leptochloa chinensis (L.) NEES (LEFCH); test: Herbicidal mixtures for weed control in transplanted paddy rice (in-water application, visual % injury)
Description: as §1, §2, §3, §4

Cyperus species (CYPSS) = test: as above
Description: as §1, §2, §3, §4

[8] = test system: Eleocharis kuroguwai OHWI (ELOKU); test: as above
Description: as §1, §2, §3, §4

[9] = test system: Fimbristylis miliacea (L.) VAHL (FIMMI); test: as above
Description: as §1, with “When required to ensure good germination and healthy plants, a fungicide treatment and/or other chemical or physical treatment was applied.” left out
as §2, §3, §4

[10] = test system: Scirpus maritimus L. (SCPMA); test: Postemergence herbicidal mixtures for weed control in direct seeded rice (greenhouse, visual % injury)
[11] = test system: Ischaemum rugosum SALISB. (ISCRU); test: as above

SMILES: CCOC(=O)C(Cl)Cc1cc(-n2nc(C)n(C(F)F)c2=O)c(F)cc1Cl (stereo not drawn) [Carfentrazone-ethyl]
- % Injury POLPE Ob ([1]; alone 14 g/ha): 0%
- % Injury 11 DAA CYPES Ob ([2]; alone 14 g/ha): 10%
- % Injury 11 DAA CYPES Ob ([2]; alone 28 g/ha): 10%
- % Injury 21 DAA CYPES Ob ([2]; alone 14 g/ha): 0%
- % Injury 21 DAA CYPES Ob ([2]; alone 28 g/ha): 0%
- % Injury CYPES Ob ([2]; alone 56 g/ha): 10%
- % Injury CYPES Ob ([2]; alone 112 g/ha): 0%
- % Injury CYPIR Ob (Cyperus iria L. (CYPIR); alone 14 g/ha): 0%
- % Injury CYPIR Ob (Cyperus iria L. (CYPIR); alone 28 g/ha): 0%

SMILES: COC(=O)c1nc(-c2ccc(Cl)c(OC)c2Cl)cc(N)c1Cl [Compound C Methyl]
- % Injury IPOHE Ob ([3]; alone 4.38 g/ha): 40%
- % Injury IPOHE Ob ([3]; alone 17.5 g/ha): 50% and 40%
- % Injury IPOHE Ob ([3]; alone 70 g/ha): 85%
- % Injury POLPY Ob ([4]; alone 8.75 g/ha): 10%
- % Injury POLPY Ob ([4]; alone 17.5 g/ha): 15%
- % Injury POLPE Ob ([1]; alone 35 g/ha): 85%
- % Injury POLPE Ob ([1]; alone 70 g/ha): 100%
- % Injury LEFCH Ob ([5]; alone 4.38 g/ha): 0%
- % Injury CYPES Ob ([2]; alone 17.5 g/ha): 65% and 100%
- % Injury CYPIR Ob (Cyperus iria L. (CYPIR); alone 8.75 g/ha): 25%
- % Injury CYPIR Ob (Cyperus iria L. (CYPIR); alone 35 g/ha): 40%
- % Injury Ob ([6]; ECHCG, 4.38 g/ha alone): 0%
- % Injury Ob ([6]; ECHCG, 8.75 g/ha alone): 0%
- % Injury Ob ([6]; ECHCG, 17.5 g/ha alone): 0%
- % Injury Ob ([6]; ECHCG, 35 g/ha alone): 10%
- % Injury Ob ([7]; 17.5 g/ha alone): 0%
- % Injury Ob ([7]; 35 g/ha alone): 0%
- % Injury Ob ([7]; 70 g/ha alone): 0%

SMILES: COC(=O)c1ccccc1CS(=O)(=O)NC(=O)Nc1nc(OC)cc(OC)n1 [Bensulfuron-methyl]
- % Injury LEFCH Ob ([5]; alone 4.38 g/ha): 20%
- % Injury LEFCH Ob ([5]; alone 8.75 g/ha): 0%
- % Injury Ob ([6]; ECHCG, 70 g/ha alone): 45% and 70%
- % Injury Ob ([6]; ECHCO, 35 g/ha alone): 20%
- % Injury Ob ([6]; ECHCO, 70 g/ha alone): 30%
- % Injury Ob (Cyperus species (CYPSS); CYPES, 4.38 g/ha alone): 40%
- % Injury Ob (Cyperus species (CYPSS); CYPES, 8.75 g/ha alone): 50%
- % Injury Ob ([8]; 35 g/ha alone): 20%
- % Injury Ob ([8]; 70 g/ha alone): 70%
- % Injury Ob ([7]; 35 g/ha alone): 15%
- % Injury Ob ([7]; 70 g/ha alone): 30%
- % Injury Ob ([9]; 35 g/ha alone): 10%
- % Injury Ob ([9]; 70 g/ha alone): 50%

SMILES: CCC(=O)Nc1ccc(Cl)c(Cl)c1 [Propanil]
- % Injury IPOHE Ob ([3]; alone 560 g/ha): 10%
- % Injury IPOHE Ob ([3]; alone 1120 g/ha): 10%
- % Injury POLPE Ob ([1]; alone 560 g/ha): 10%
- % Injury POLPE Ob ([1]; alone 1120 g/ha): 40%
- % Injury at 11 DAA CYPIR Ob (Cyperus iria L. (CYPIR); alone 560 g/ha): 10%
- % Injury at 11 DAA CYPIR Ob (Cyperus iria L. (CYPIR); alone 1120 g/ha): 10%
- % Injury at 21 DAA CYPIR Ob (Cyperus iria L. (CYPIR); alone 560 g/ha): 0%
- % Injury at 21 DAA CYPIR Ob (Cyperus iria L. (CYPIR); alone 1120 g/ha): 0%
- % Injury at 11 DAA SCPMA Ob ([10]; alone 560 g/ha): 30%
- % Injury at 11 DAA SCPMA Ob ([10]; alone 1120 g/ha): 30%
- % Injury at 21 DAA SCPMA Ob ([10]; alone 560 g/ha): 0%
- % Injury at 21 DAA SCPMA Ob ([10]; alone 1120 g/ha): 0%

SMILES: CCCCOC(=O)c1nc(-c2ccc(Cl)c(OC)c2F)cc(N)c1Cl [Compound A n-Butyl]
- % Injury IPOHE Ob ([3]; alone 8.75 g/ha): 35%
- % Injury IPOHE Ob ([3]; alone 17.5 g/ha): 30%
- % Injury POLPY Ob ([4]; alone 8.75 g/ha): 40%
- % Injury POLPY Ob ([4]; alone 17.5 g/ha): 90%
- % Injury POLPE Ob ([1]; alone 4.38 g/ha): 40%
- % Injury POLPE Ob ([1]; alone 8.75 g/ha): 60%
- % Injury ISCRU Ob ([11]; alone 35 g/ha): 20%
- % Injury ISCRU Ob ([11]; alone 70 g/ha): 50%
- % Injury LEFCH Ob ([5]; alone 8.75 g/ha): 10%
- % Injury LEFCH Ob ([5]; alone 17.5 g/ha): 30%
- % Injury LEFCH Ob ([5]; alone 35 g/ha): 60%
- % Injury 11 DAA CYPES Ob ([2]; alone 35 g/ha): 50%
- % Injury 11 DAA CYPES Ob ([2]; alone 70 g/ha): 75%
- % Injury 21 DAA CYPES Ob ([2]; alone 35 g/ha): 90%
- % Injury 21 DAA CYPES Ob ([2]; alone 70 g/ha): 100%
- % Injury CYPES Ob ([2]; alone 8.75 g/ha): 50%
- % Injury CYPES Ob ([2]; alone 17.5 g/ha): 85% and 90%
- % Injury at 11 DAA CYPIR Ob (Cyperus iria L. (CYPIR); alone 35 g/ha): 60%
- % Injury at 11 DAA CYPIR Ob (Cyperus iria L. (CYPIR); alone 70 g/ha): 90%
- % Injury at 21 DAA CYPIR Ob (Cyperus iria L. (CYPIR); alone 35 g/ha): 60%
- % Injury at 21 DAA CYPIR Ob (Cyperus iria L. (CYPIR); alone 70 g/ha): 100%
- % Injury at 11 DAA SCPMA Ob ([10]; alone 35 g/ha): 30%
- % Injury at 11 DAA SCPMA Ob ([10]; alone 70 g/ha): 100%
- % Injury at 21 DAA SCPMA Ob ([10]; alone 35 g/ha): 50%
- % Injury at 21 DAA SCPMA Ob ([10]; alone 70 g/ha): 100%

SMILES: COc1cnc(OC)n2nc(NS(=O)(=O)c3c(OCC(F)F)cccc3C(F)(F)F)nc12 [Penoxsulam]
- % Injury IPOHE Ob ([3]; alone 4.38 g/ha): 70%
- % Injury IPOHE Ob ([3]; alone 8.75 g/ha): 60%
- % Injury LEFCH Ob ([5]; alone 17.5 g/ha): 0%
- % Injury LEFCH Ob ([5]; alone 35 g/ha): 0%
- % Injury CYPES Ob ([2]; alone 17.5 g/ha): 10%
- % Injury Ob ([6]; ECHCG, 4.38 g/ha alone): 70%
- % Injury Ob (Cyperus species (CYPSS); CYPES, 8.75 g/ha alone): 40%
- % Injury Ob (Cyperus species (CYPSS); CYPIR, 8.75 g/ha alone): 70%
- % Injury Ob ([8]; 8.75 g/ha alone): 0%
- % Injury Obs ([8]; 8.75 g/ha alone): 0%
- % Injury Ob ([7]; 8.75 g/ha alone): 0%
- % Injury Ob ([7]; 17.5 g/ha alone): 15%
- % Injury Ob ([7]; 35 g/ha alone): 20%
